The record followed here is publication PMC12257540, “From Inhibitors to PET: SAR-Based Development of [^18F]SK60 for mIDH1 Imaging” (Journal of Medicinal Chemistry, 2025).

A short description of series [1]: Ex vivo biodistribution in naïve mice. The arrangement: species or system CD-1 mice. As to conditions: i.v. As for the experimental part:
[ ^ 18 F]-SK60 (151 ± 37.0 kBq) diluted in 200 μL of sterile isotonic saline was injected into the tail vein of restrained, awake mice. The animals were anesthetized with isoflurane at 5 (n = 2), 15 (n = 1–2), 30 (n = 3), and 60 (n = 3) min after injection; blood was collected from the retro-orbital plexus with a heparinized glass Pasteur pipet, and the anesthetized animal was sacrificed by cervical dislocation. Blood plasma was obtained by centrifugation of the whole blood (8000 rpm, 4 °C, 2 min). […] From the measured data, the uptake of the activity in the different tissues and organs at the different time points p.i. was calculated as a percentage of injected dose per gram of tissue (% ID/g) and standardized uptake values (SUV).

Another series has as its system IDH1-U251 cells. The series can be described thus: In vitro cell uptake of [18F]SK60 in IDH1-U251 cells. It is filed as cell-based, Human. As to conditions: 240 min incubation. The procedure: (§1) Human U251 glioblastoma cells, stably transfected and overexpressing either wild-type IDH1 (IDH1-U251) or IDH1R132H (IDH1R132H–U251), were obtained from Jaqueline Kessler and Dirk Vordermark (Department of Radiotherapy, Martin Luther University Halle-Wittenberg, Halle/Saale, Germany). Cells were grown in RPMI 1640 medium (10% FCS), supplemented with puromycin, to ensure the cultivation of transfected cells only.
(§2) The IDH1-U251 and IDH1R132H–U251 cells were seeded at 4,00,000 cells/mL in a 24-well cell culture plate 1 day before the experiment. The medium was replaced by 400 μL/well, and 4 μL of a 100-x stock solution of the respective inhibitor in 10% DMSO or vehicle (10% DMSO) was added about 2 h before the experiment. The experiment was started with the addition of 100 μL of [ ^ 18 F]-SK60 (0.477 ± 0.002 MBq/mL; 4.86 ± 0.33 nM) diluted in cell culture medium per well, and the well plates were incubated in a humidified-air atmosphere incubator containing 5% CO2 at 37 °C for various times. The incubation was stopped by aspiration of the supernatant and washing the cell layers twice with prechilled PBS (500 μL/well). […] The concentrations of surface-bound and internalized activities per well were calculated as a percentage of the applied dose per well and normalized to the protein concentration per well (% AD/μg protein). […]

Series [2] in a line: PET-based biodistribution in naïve mice.
Description: For the time of the experiments, female CD-1 mice (n = 4; 8–10 weeks; 37–40 g) were kept in a dedicated climatic chamber with free access to water and food under a 12:12 h dark: light cycle at a constant temperature (24 °C). The animals were anesthetized (Anaesthesia Unit U-410, agntho’s, Lidingö, Sweden) with isoflurane (2.0%, 300 mL/min) delivered in a 20% oxygen/80% air mixture (Gas Blender 100 Series, MCQ instruments, Rome, Italy) and their body temperature maintained at 37 °C with a thermal bed system. […] Each PET image was corrected for random coincidences, dead time, scatter, and attenuation (AC) based on a whole body (WB) MR scan. The reconstruction parameters for the list mode data were 3D-ordered subset expectation maximization (OSEM), 4 iterations, 6 subsets, energy window: 400–600 keV, coincidence mode: 1–5, ring difference: 81. The PET data were collected by a continuous WB scan during the entire investigation. […] The brain region was identified using the mouse brain atlas template Ma-Benveniste-Mirrione-FDG. The activity data are expressed as the SUVmean of the overall ROI.
In series [3] the test system is IDH1R132H-U251 cells (target-positive) and IDH1-U251 cells (target-negative). The series can be described thus: Real-time radioligand binding (LigandTracer) to live U251 cells. As to conditions: room temperature, medium without or with 5 % BSA. The arrangement: species or system Human. As for the experimental part: Real-time radioligand binding
Real-time radioligand binding using LigandTracer®
The LigandTracer (LigandTracer Yellow, Ridgeview Instruments AB, Uppsala, Sweden) system allows assessment of binding kinetics (association rate constant ka and dissociation rate constant kd) and therefore dissociation constant (KD).
Briefly, target-positive/-negative cells are seeded to different quadrants of a petri dish (Thermo Scientific Nunclon Delta #150350). Here, approximately 5x10^4 target-positive cells (IDH1R132H-U251 cells) and target-negative cells (IDH1-U251 cells) were seeded in a ~20 mm round spot (0.5 mL of a solution of 1x10^5 cells/mL), three days before the experiment. […]
The culture medium is removed and replaced with 3 mL CO2-independent medium (Gibco #18045088, ThermoFisher Germany) without or with bovine serum albumin (BSA) (5 %; #3737.3, Carl Roth GmbH, Karlsruhe, Germany). In the instrument, the dish rotates on an inclined base, where cells in medium (3 mL) are located on one side, while radioactivity is detected on the opposite side. This allows continuous measurements of two or more alternating parts of the dish for bound radioactivity (e.g. target-positive) against background (e.g. no cells) or target-negative cells. […]
Data was acquired in decay-corrected counts per second (CPS) and subsequently analyzed using TraceDrawer (1.9.2, Ridgeview Instruments AB, Uppsala, Sweden). […]

The subject of the next series is IDH1R132H–U251 cells. The series can be described thus: In vitro cell uptake of [18F]SK60 in IDH1R132H-U251 cells. The class given is cell-based, Human. As to conditions: 240 min incubation. As for the experimental part: as §1, §2

`Cc1cccc(NC(=O)c2nn(Cc3ccc([18F])cc3)c3c2CN(C(=O)c2ccc[nH]2)CC3(C)C)c1` [[18F]SK60]: the “activity in kidneys and bladder” value in series [1] (kidneys and bladder, 60 min p.i.) is given as under 1 SUVmean. Further, the accumulation in liver in series [1] (liver, 5 min p.i.) is about 7 SUVmean; in series [2] (PET, liver, 30 min, n = 2), 1.6 SUVmean. Moreover, the “accumulation in small intestine” value in series [1] (small intestine, 60 min p.i.) is about 13 SUVmean. Also, the internalized radioligand amounted to 0.074 ± 0.023 % AD/μg protein in the series with IDH1-U251 cells and 0.089 ± 0.02 % AD/μg protein in the series with IDH1R132H–U251 cells. For the same compound, the surface-bound radioligand in the series with IDH1-U251 cells came to 0.052 ± 0.029 % AD/μg protein. The accumulation in gallbladder in series [2] (PET, gallbladder, 30 min, n = 2) turned out to be 60 SUVmean. The brain uptake in series [2] (brain, 15 min p.i.) is given as about 0.3 SUVmean. The “real-time radioligand binding to live cells” value in series [3] is “Reliable binding of [18F]SK60 could not be observed”.
